Columns and labels:
Test in all cases: relative viability (nuclei count vs DMSO), 5 days (fraction); higher = more cells survive
[1] = compound: COC1=C(C=C(C=C1)C2=CC3=NC=CN3C(=N2)NC4=C(C=CC=N4)C(=O)N)OC [BAY61-3606]
Procedure, shortened: (§1)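 Vehicle-anchored 1536-well plates of lung cancer cell lines, held overnight at 37 °C, were pinned with five library-drug doses (not always all listed) spaced by √10. No medium change followed over the next 5 days, after which the cells were fixed, permeabilised and Hoechst-stained together and imaged at 4×. Nuclei were counted with MetaXpress, and viability is treated-well nuclei over vehicle-well nuclei, taken as a median across plates. Plates passed with control CV below 25% and at least one doubling.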

[2] = compound: COc1cccc2c1C(=O)c1c(O)c3c(c(O)c1C2=O)C[C@@](O)(C(=O)CO)C[C@@H]3O[C@H]1C[C@H](N)[C@H](O)[C@H](C)O1 [Doxorubicin]
Procedure, shortened: as §1

[3] = compound: COC1=C(C=C(C=C1)C2=CC3=NC=CN3C(=N2)NC4=C(C=CC=N4)C(=O)N)OC [BAY61-3606] + CC1(C)CCC(c2ccc(Cl)cc2)=C(CN2CCN(c3ccc(C(=O)NS(=O)(=O)c4ccc(N[C@H](CCN5CCOCC5)CSc5ccccc5)c(S(=O)(=O)C(F)(F)F)c4)cc3)CC2)C1 [Navitoclax] (partner 0.5 µM)
Procedure, shortened: (§2)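 Lung cancer cell lines were seeded in 1536-well plates and dosed by pin tool the next day, with either a single drug or a fixed anchor-drug dose combined with five library-drug doses (not always all listed) spaced in √10 steps. Five days later, one step fixed the cells and stained their nuclei (final 0.05% Triton X-100, 1% formaldehyde, 1 ug/ml Hoechst), and nuclei were counted on 4× images. Relative viability is the nuclei count in treated wells divided by the count in vehicle wells, and each value is the median of duplicate plates.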

[4] = compound: COC1=C(C=C(C=C1)C2=CC3=NC=CN3C(=N2)NC4=C(C=CC=N4)C(=O)N)OC [BAY61-3606] + COc1cc2c(Oc3ccc(NC(=O)C4(C(=O)Nc5ccc(F)cc5)CC4)cc3F)ccnc2cc1OCCCN1CCOCC1 [Foretinib] (partner 0.25 µM)
Procedure, shortened: as §2

Cell Line	relative viability ([1]; 0.02 µM)	relative viability ([1]; 0.06325 µM)	relative viability ([1]; 0.2 µM)	relative viability ([1]; 0.6325 µM)	relative viability ([1]; 2 µM)	relative viability ([2]; 0.001 µM)	relative viability ([2]; 0.003162 µM)	relative viability ([2]; 0.01 µM)	relative viability ([2]; 0.03162 µM)	relative viability ([2]; 0.1 µM)	relative viability ([3]; first compound 0.02 µM)	relative viability ([3]; first compound 0.06325 µM)	relative viability ([3]; first compound 0.2 µM)	relative viability ([3]; first compound 0.6325 µM)	relative viability ([3]; first compound 2 µM)	relative viability ([4]; first compound 0.02 µM)	relative viability ([4]; first compound 0.06325 µM)	relative viability ([4]; first compound 0.2 µM)	relative viability ([4]; first compound 0.6325 µM)	relative viability ([4]; first compound 2 µM)
NCI-H1651	1.01	0.93	0.986	1.01	0.883	0.949	0.96	0.925	0.642	0.635	1.21	1.09	0.964	1.17	0.909	0.886	0.713	0.765	0.88	0.739
NCI-H1395	1.02	0.811	0.826	0.895	0.811	0.919	1.05	1.02	0.891	0.629	1.26	1.04	1.49	1.35	0.966	1.13	0.934	0.951	0.995	0.807
SK-LU-1	1.08	1.04	1.04	1.06	0.694	1	1.05	0.987	0.798	0.654	1.19	0.836	0.695	0.812	0.55	0.863	0.863	0.745	0.758	0.408
LXF-289	0.95	1.07	0.874	1.04	1.05	0.952	1.03	1.01	1.05	1.01	0.887	1.05	0.952	0.981	1.01	0.966	0.971	0.978	0.988	0.944
NCI-H1437	1.03	1.03	0.978	1	0.941	0.991	1.01	0.894	0.718	0.409	1.1	1.16	1.06	1.12	1.06	1.23	1.22	1.31	1.38	1.28
HCC-827	1.02	1.01	1.06	1.1	0.994	1.01	1.01	1.04	1.03	1	1	0.998	1.06	1.08	1.02	1.04	1.01	1.11	1.07	1.03
NCI-H1650	1.06	0.883	0.964	1.11	0.527	0.823	0.809	0.481	0.255	0.159	1.21	1.19	1.16	1.27	0.751	1.14	1.02	1.02	1.34	0.498
HCC-15	1	0.971	0.994	0.988	0.896	0.807	1.08	0.975	0.811	0.654	0.796	0.703	0.691	0.702	0.683	0.99	0.981	0.963	1.05	0.83
EKVX	1.04	1	0.884	1.07	0.99	1.01	1.03	0.963	0.951	0.902	1.04	1.04	0.884	0.959	0.938	0.986	0.673	0.768	0.978	0.695
NCI-H2126	1.07	0.931	0.944	1.05	0.915	0.946	1	0.97	0.914	1.01	0.88	0.823	0.769	0.759	0.742	1.4	1.21	1.06	1.13	0.959
LK-2	1.08	0.939	1.06	1.09	0.923	0.903	1.08	0.829	0.788	1.08	0.927	0.963	0.925	0.896	0.705	1.24	1.19	1	1.32	0.768
COR-L23	1.05	1.09	1.06	1	0.909	0.998	1.05	0.932	0.718	0.235	1.06	1.1	1.02	1.11	0.813	0.999	0.944	0.963	0.992	0.865
SW 1573	1.04	1.03	0.905	1	0.659	0.876	0.914	0.539	0.364	0.292	0.84	0.918	0.832	0.97	0.683	1.18	0.872	0.81	0.839	0.757
A549	1.01	1.07	0.959	1.05	0.857	1	0.991	0.869	0.395	0.503	1.24	1.14	1.33	1.22	0.916	1.11	0.989	0.853	0.969	0.809
A-427	1.08	1.01	0.963	1.03	0.892	0.969	1.03	0.936	0.81	0.757	1.03	0.983	0.962	1.06	0.914	1.16	1.01	1.04	1.24	0.925

— the supplement of paper PMC10307832
